Results from ChEMBL document CHEMBL1201862, “PubChem BioAssay data set” (2004).
Active and inactive are the calls of the source.

How the values were obtained:
[1] = target: T1, Short transient receptor potential channel 4 (Mus musculus, UniProt Q9QUQ5); assay: mouse TRPC4 channel activators, dose response, cell-based, HEK293 TRPC4/mu-opioid, Fluo-4 calcium (AID 434937); type: functional
T1 sequence (Q9QUQ5 whole entry): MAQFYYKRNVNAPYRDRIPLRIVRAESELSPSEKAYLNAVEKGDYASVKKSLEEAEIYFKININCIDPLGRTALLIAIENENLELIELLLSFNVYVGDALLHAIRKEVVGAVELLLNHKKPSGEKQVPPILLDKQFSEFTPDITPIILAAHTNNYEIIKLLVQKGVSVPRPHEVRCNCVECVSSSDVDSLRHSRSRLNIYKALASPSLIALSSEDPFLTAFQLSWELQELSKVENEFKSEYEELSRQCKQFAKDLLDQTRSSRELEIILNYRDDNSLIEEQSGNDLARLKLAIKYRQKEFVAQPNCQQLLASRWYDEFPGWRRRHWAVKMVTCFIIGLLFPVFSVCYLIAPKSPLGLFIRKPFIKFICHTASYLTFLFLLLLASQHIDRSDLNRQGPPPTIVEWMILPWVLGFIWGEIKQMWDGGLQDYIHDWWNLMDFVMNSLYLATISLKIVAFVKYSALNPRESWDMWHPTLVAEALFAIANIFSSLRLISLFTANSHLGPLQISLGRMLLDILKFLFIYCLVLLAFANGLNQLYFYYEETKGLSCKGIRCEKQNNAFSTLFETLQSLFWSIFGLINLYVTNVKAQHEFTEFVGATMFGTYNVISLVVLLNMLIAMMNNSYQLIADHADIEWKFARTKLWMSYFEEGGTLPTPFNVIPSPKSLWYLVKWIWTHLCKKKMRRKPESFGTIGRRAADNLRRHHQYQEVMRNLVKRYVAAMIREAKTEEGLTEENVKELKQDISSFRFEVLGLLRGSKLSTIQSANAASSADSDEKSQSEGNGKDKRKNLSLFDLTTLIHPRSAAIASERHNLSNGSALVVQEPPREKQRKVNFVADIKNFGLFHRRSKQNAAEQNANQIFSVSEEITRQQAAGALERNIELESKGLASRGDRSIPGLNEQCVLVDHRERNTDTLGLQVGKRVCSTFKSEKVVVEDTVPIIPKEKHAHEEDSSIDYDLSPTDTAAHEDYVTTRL

[2] = target: Delta-type opioid receptor (Homo sapiens, UniProt P41143); assay: Counterscreen for agonists of heterodimerization of the mu 1 (OPRM1) and delta 1 (OPRD1) opioid receptors: Luminescence-based cell-based high throughput dose response assay to identify agonists of OPRD1 homodimerization. [Related pubchem assays (depositor defined):AID504326, AID504355, AID504692, AID504904, AID504905]; type: functional
Mu-type opioid receptor = Mu-type opioid receptor (Homo sapiens, UniProt P35372); assay: Counterscreen for agonists of heterodimerization of the mu 1 (OPRM1) and delta 1 (OPRD1) opioid receptors: Luminescence-based cell-based high throughput dose response assay to identify agonists of OPRM1 homodimerization.; type: functional;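 further: U2OS cells expressing OPRM1 and beta-arrestin as split beta-galactosidase partners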
[3] = target: Opioid receptors; mu & delta (Homo sapiens, UniProt P41143+P35372); assay: agonists of MOR-DOR heterodimerization, dose response, cell-based, luminescence (AID 588407); type: functional
[4] = target: 5-hydroxytryptamine receptor 5A (Homo sapiens, UniProt P47898); assay: Counterscreen for agonists of OPRM1-OPRD1 heterodimerization: luminescence-based cell-based high throughput dose response assay to identify agonists of 5-hydroxytryptamine (serotonin) 5A receptor (HTR5A). [Related pubchem assays (depositor defined):AID504326, AID504355, AID504692, AID504904, AID504905]; type: functional
[5] = NIH-3T3 fibroblast cytotoxicity, dose response, cytotoxicity control, cell-based, fluorescence, Alamar Blue, secondary assay (AID 2327); type: functional;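 further: NIH-3T3 mouse fibroblasts cultured with fluconazole at 8 µg/mL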
[6] = C. albicans growth with fluconazole, confirmation, fluorescence, retest (AID 2467); type: functional, cell-based
[7] = cytotoxicity in HPDE-C7 cells, cell-based, fluorescence, HTS (AID 430); type: functional; details: Homo sapiens
[8] = cytotoxicity in KRAS-transformed pancreatic duct cells, primary screen, cell-based, fluorescence, HTS (AID 431); type: functional; details: Homo sapiens;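 further: cell line used: HPDE-C7K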
[9] = growth suppression of PTEN-null colon cells, dose response, cell-based, HCT116 PTEN knockout (AID 1047); type: functional;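 further: HCT116 colon tumor cells with PTEN knocked out; cells exposed to compound for 60 hours before readout; potency for loss of cell viability measured by luminescence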
[10] = growth suppression of beta-catenin-knockout colon cells, dose response, cell-based, HCT116, human colon tumor (AID 1045); type: functional;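 further: HCT116 colon tumor cells with beta catenin knocked out; cells exposed to compound for 60 hours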
[11] = THP-1 cell cytotoxicity, dose response, cytotoxicity control for non-replicating M. tuberculosis project (AID 489025); type: functional
[12] = HepG2 cell cytotoxicity, dose response, cytotoxicity control for non-replicating M. tuberculosis project (AID 489018); type: functional; details: Mycobacterium tuberculosis
[13] = Vero E6 cell cytotoxicity, dose response, cytotoxicity control for non-replicating M. tuberculosis project, secondary assay (AID 492998); type: functional, VeroE6; details: Vero C1008
[14] = target: T2, Microphthalmia-associated transcription factor (Homo sapiens, UniProt O75030); assay: TRPM1 promoter luciferase signal decrease, dose response, MITF inhibitor project, cell-based, SK-MEL-5, cherry-picked, set 3 (AID 493073); type: functional
T2 sequence (O75030 whole entry): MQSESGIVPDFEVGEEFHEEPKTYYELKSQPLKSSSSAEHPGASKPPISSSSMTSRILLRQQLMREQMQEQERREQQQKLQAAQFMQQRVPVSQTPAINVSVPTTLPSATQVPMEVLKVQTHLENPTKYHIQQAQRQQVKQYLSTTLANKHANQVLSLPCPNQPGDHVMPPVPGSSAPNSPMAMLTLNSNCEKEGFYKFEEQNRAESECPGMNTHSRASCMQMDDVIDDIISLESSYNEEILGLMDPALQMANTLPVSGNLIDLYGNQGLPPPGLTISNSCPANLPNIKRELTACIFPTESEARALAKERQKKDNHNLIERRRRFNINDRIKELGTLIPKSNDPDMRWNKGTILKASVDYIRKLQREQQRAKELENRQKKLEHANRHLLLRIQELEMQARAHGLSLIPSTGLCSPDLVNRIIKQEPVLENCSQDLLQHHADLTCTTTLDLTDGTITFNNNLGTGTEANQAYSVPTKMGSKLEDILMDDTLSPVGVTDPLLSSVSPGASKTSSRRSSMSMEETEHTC

cells = type: functional
A-375 [15] = assay: MITF: Counter assay: A375 proliferation Measured in Cell-Based System Using Plate Reader - 2084-03_Inhibitor_Dose_DryPowder_Activity. [Related pubchem assays (depositor defined):AID488944]; type: functional; details: Homo sapiens
A-375 [16] = assay: A375 melanoma cell viability reduction, dose response, counter-screen for MITF modulator project, cherry-pick samples, set 2 (AID 540335); type: functional, cell-based; details: Homo sapiens
[17] = inhibitors of PGC1a acetylation in cells, dose response, cell-based, cherry-picked samples (AID 720514); type: functional;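 further: potency may reflect raised or lowered acetylation signal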
[18] = target: Dual specificity protein kinase CLK1 (Homo sapiens, UniProt P49759); assay: CLK1 kinase inhibitors, off-target check, dose response, selectivity assay for Dyrk1A inhibitor project, biochemical, cherry-picked samples (AID 588811)
[19] = target: Dual specificity tyrosine-phosphorylation-regulated kinase 1A (Rattus norvegicus, UniProt Q63470); type: biochemical, Homo sapiens
[20] = cytotoxicity in HEK-293T cells, dose response, cytotoxicity control for BCR NF-kB inhibitor project, luminescence, B-cell screen hits (AID 489021); type: functional, cell-based;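 further: HEK-293T cells carrying an NF-kB luciferase reporter; cells exposed to compound for about 14 hours before viability readout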
HEK293 [21] = assay: cytotoxicity in HEK293T NF-kB-Luc cells, SAR follow-up, cytotoxicity control for NF-kB activator project, cell-based, resazurin fluorescence (AID 493251); type: functional; details: Homo sapiens
Jurkat [22] = assay: SAR Analysis of small molecule inhibitors of T-cell specific antigen receptor-induced NF-kB activation in a Jurkat cell line using a luminescence assay - Set 2. [Related pubchem assays (depositor defined):AID435003, AID435012, AID465]; type: functional, cell-based; details: Homo sapiens
HEK293 [23] = assay: SAR Analysis of small molecule inhibitors of T-cell specific antigen receptor-induced NF-kB activation in a HEK-293T cell line using a luminescence assay - Set 2. [Related pubchem assays (depositor defined):AID435003, AID435012, AID489026]; type: functional, cell-based; details: Homo sapiens
DNA topoisomerase = DNA topoisomerase (Yersinia pestis, UniProt A0A2S9PM60); assay: Y. pestis Topo-I inhibitors, cleavage product readout, dose response, biochemical, cherry-pick (AID 588525)
Jurkat [24] = assay: antigen receptor-induced NF-kB inhibitors, dose response, Jurkat, luciferase reporter, luminescence, B- and T-cell (AID 489004); type: functional, cell-based; details: Homo sapiens;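 further: NF-kB luciferase reporter Jurkat cells stimulated with PMA plus ionomycin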
[25] = cytotoxicity in HEK-293T NF-kB-Luc cells, dose response, cytotoxicity control for B/T-cell NF-kB inhibitor project, cell-based, uHTS hits (AID 489019); type: functional;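 further: IC50 reflects cytotoxicity as loss of cell viability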
H4 [26] = assay: inhibitors of control reporter signal in H4 cells – cell-based, plate reader, dry powder samples, counter-screen for prion reporter project, dose response (AID 540255); type: functional; details: Homo sapiens
H4 [27] = assay: Inhibitors of Prion Protein 5' UTR mRNA Measured in Cell-Based System Using Plate Reader - 2078-01_Inhibitor_Dose_DryPowder_Activity. [Related pubchem assays (depositor defined):AID488894]; type: functional; details: Homo sapiens
[28] = inhibitors of HIV Env-driven cell fusion, dose response, cherry-pick (AID 652057); type: functional, cell-based
[29] = ZM109 Env clade C HIV-1 fusion inhibitors, dose response, HeLa effector, CEM target cells, luciferase, cherry-pick (AID 652058); type: functional, cell-based
[30] = off-target signal loss in HeLa-CEM21 co-culture – HeLa F-luc CTL cells, cherry-picked, counter-screen for HIV-1 Env fusion inhibitor project, dose response (AID 652040); type: functional, cell-based;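 further: potency for signal decrease marking cytotoxic or nonspecific inhibition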
[31] = inhibitors of clade B AD8 Env fusion, dose response, cell-based, cherry-pick (AID 652062); type: functional;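 further: luciferase signal from cell-cell fusion driven by HIV-1 clade B AD8 Env; potency is for inhibitors of fusion seen as a drop in luminescence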
[32] = A549 cell cytotoxicity, dose response, cytotoxicity control, plate reader, cherry-pick, antagonist series (AID 743412); type: functional, cell-based
[33] = LGR2 antagonists, dose response, cell-based, HEK293, CRE-luciferase reporter, cherry pick, set 2 (AID 743343); type: functional;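 further: transfected cells were stimulated with diluted bursicon conditioned medium after compound addition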
[34] = MC4R antagonists, dose response, counter-screen for LGR2 antagonist project, cell-based, plate reader, cherry pick (AID 743444); type: functional;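 further: transfected HEK 293 cells stimulated with alpha-MSH peptide; potency of inhibitors of the alpha-MSH evoked signal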

Chain of DNA topoisomerase (A0A2S9PM60 whole entry): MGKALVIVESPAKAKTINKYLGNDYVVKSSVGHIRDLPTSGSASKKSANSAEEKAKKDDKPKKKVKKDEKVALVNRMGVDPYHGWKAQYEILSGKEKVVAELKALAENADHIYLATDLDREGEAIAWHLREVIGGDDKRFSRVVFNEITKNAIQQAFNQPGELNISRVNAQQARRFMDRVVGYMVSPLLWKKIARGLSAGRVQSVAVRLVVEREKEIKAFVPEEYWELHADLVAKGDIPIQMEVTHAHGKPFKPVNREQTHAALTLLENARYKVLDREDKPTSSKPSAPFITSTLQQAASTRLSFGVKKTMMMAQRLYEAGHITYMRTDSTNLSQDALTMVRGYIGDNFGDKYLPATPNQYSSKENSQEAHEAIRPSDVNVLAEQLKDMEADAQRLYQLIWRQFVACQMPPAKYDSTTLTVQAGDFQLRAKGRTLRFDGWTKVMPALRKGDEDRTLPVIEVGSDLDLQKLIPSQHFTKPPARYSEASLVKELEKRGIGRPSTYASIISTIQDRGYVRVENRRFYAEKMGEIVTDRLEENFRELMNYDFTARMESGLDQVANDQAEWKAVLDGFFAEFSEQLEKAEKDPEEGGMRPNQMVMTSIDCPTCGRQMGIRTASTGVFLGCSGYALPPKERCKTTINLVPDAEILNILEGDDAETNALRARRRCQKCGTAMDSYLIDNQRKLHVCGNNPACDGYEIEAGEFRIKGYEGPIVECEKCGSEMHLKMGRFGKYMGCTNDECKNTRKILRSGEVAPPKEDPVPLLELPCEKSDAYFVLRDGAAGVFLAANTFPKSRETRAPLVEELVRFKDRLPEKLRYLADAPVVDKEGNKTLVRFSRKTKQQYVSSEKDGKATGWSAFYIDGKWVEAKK
Chain of 5-hydroxytryptamine receptor 5A (P47898 whole entry): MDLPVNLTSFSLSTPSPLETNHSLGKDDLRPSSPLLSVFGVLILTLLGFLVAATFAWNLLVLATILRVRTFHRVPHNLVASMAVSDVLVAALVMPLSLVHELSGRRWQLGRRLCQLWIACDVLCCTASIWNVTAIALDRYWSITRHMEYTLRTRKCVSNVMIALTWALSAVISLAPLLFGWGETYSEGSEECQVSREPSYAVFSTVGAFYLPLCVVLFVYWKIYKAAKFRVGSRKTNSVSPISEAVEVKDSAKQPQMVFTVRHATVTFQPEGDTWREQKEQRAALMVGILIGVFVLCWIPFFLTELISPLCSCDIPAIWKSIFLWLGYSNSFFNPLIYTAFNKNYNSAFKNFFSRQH
Chain of Dual specificity protein kinase CLK1 (P49759 whole entry): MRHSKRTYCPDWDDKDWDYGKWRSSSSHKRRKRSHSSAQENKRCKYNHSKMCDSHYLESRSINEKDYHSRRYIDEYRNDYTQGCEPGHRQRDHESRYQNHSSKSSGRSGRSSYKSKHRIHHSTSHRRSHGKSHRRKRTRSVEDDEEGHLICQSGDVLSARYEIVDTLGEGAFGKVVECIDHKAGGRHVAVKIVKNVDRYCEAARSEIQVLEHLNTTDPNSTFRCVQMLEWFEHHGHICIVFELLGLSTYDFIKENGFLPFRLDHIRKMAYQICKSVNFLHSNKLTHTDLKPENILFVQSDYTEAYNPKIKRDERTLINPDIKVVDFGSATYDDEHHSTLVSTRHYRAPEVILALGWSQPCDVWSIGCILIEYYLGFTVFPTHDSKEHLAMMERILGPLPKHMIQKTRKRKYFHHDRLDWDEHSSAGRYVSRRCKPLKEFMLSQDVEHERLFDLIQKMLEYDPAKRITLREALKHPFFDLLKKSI
Chain of Mu-type opioid receptor (P35372 whole entry): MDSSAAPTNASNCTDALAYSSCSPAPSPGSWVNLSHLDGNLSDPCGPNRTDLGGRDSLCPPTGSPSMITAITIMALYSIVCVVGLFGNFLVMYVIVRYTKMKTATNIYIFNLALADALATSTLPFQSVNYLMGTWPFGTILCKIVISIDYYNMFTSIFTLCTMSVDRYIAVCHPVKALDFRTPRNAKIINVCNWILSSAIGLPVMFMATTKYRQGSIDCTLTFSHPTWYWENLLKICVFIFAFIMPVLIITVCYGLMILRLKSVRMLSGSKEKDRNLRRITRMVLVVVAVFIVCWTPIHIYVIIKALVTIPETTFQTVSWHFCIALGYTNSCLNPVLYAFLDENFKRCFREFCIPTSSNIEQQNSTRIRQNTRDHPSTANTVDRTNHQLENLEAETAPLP
Chain of Delta-type opioid receptor (P41143 whole entry): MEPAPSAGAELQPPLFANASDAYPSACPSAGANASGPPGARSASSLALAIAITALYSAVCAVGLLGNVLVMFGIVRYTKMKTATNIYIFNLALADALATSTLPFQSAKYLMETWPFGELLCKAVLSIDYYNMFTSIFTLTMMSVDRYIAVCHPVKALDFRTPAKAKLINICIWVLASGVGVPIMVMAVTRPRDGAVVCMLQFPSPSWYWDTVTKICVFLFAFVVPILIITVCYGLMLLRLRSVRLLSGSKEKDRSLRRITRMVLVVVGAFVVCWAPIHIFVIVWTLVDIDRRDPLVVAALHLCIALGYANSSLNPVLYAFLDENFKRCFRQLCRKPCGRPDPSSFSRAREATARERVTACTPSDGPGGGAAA

Compound: COc1ccccc1N1CCN(C(c2cccs2)C(C)NC(=O)c2ccco2)CC1 (stereo not drawn)
- EC50 [1]: 0.084 µM (active)
- EC50 [2]: > 92.5 µM (inactive)
- EC50 (Mu-type opioid receptor): 50.3 µM (inactive)
- EC50 [3]: > 3.425 µM
- EC50 [4]: > 92.5 µM (inactive)

Compound: COc1ccc(C(=O)C(CN2CCCC2)c2ccccc2)cc1 (stereo not drawn)
- EC50 [5]: 59.6 µM (active)
- EC50 [6]: 2.13 µM (active)
- EC50 [7]: 4.54 µM (active)
- EC50 [8]: 6.46 µM (active)
- EC50 [9]: 2.44 µM (active)
- EC50 [10]: 1.83 µM (active)
- CC50 [11]: 7.27 µM (active)
- CC50 [12]: 17.3 µM (active)
- CC50 [13]: 11.6 µM (active)
- AC50 [14]: 9.13 µM (active)
- IC50 (cells): 16.5 µM (active)
- AC50 (A-375 [15]): > 35 µM (active)
- AC50 (A-375 [16]): > 35 µM (active)
- AC50 [17]: 10.5 µM (active)

Compound: COc1cccc(Nc2ncnc3sc(C)cc23)c1
- AC50 [18]: 5.47 µM (active)
- AC50 [19]: 3.81 µM (active)

Compound: O=C(Nc1nc2c(Br)cc(Br)cc2c(=O)s1)c1ccco1
- IC50 [20]: > 80 µM (inactive)
- IC50 (HEK293 [21]): > 80 µM (inactive)
- IC50 (Jurkat [22]): 6.7 µM (active)
- IC50 (HEK293 [23]): > 80 µM (inactive)

Compound: CC(C)CC1NC(=O)c2cc3ccccc3cc2-n2c1nc1cc(Cl)ccc1c2=O (stereo not drawn)
- AC50 (DNA topoisomerase): 10.2 µM (active)

Compound: COc1cccc(NC(=O)Nc2cccc(C(=O)O)c2)c1
- IC50 (Jurkat [24]): 1.9 µM (active)
- IC50 [25]: > 80 µM (inactive)
- AC50 [14]: 2.37 µM (active)
- AC50 (H4 [26]): 3.95 µM (active)
- AC50 (H4 [27]): 0.915 µM (active)
- AC50 [28]: 1.8 µM (active)
- AC50 [29]: 7.32 µM (active)
- AC50 [30]: 2.11 µM (active)
- AC50 [31]: 3.29 µM (active)
- AC50 [32]: > 52 µM (inactive)
- AC50 [33]: 1.56 µM (active)
- AC50 [34]: 2.35 µM (active)
